In ChEMBL document CHEMBL1201862, “PubChem BioAssay data set” (2004):
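All cell lines were grown in 96-well plates and treated with compound for 48 hours. At the GI50, growth is halved.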 The source made the active and inactive calls. No stated cut-off is given here; in the data, active = GI50 up to about 1.1 µM and inactive = higher.

Legend:
Assay in all cases: NCI-60 cell line screen, 48 h
MOLT-4 = tested on: MOLT-4
LOX IMVI = tested on: LOX IMVI
M14 = tested on: M14
HOP-62 = tested on: HOP-62
SK-MEL-5 = tested on: SK-MEL-5
SK-MEL-28 = tested on: SK-MEL-28
T47D = tested on: T47D
NCI-H460 = tested on: NCI-H460
PC-3 = tested on: PC-3
UACC-62 = tested on: UACC-62
A498 = tested on: A498
SNB-75 = tested on: SNB-75
SF-268 = tested on: SF-268
COLO 205 = tested on: COLO 205
RPMI-8226 = tested on: RPMI-8226
SF-539 = tested on: SF-539
SK-MEL-2 = tested on: SK-MEL-2
UO-31 = tested on: UO-31
SF-295 = tested on: SF-295
HOP-92 = tested on: HOP-92

Structure (SMILES) | GI50 (MOLT-4) | GI50 (LOX IMVI) | GI50 (M14) | GI50 (HOP-62) | GI50 (SK-MEL-5) | GI50 (SK-MEL-28) | GI50 (T47D) | GI50 (NCI-H460) | GI50 (PC-3) | GI50 (UACC-62) | GI50 (A498) | GI50 (SNB-75) | GI50 (SF-268) | GI50 (COLO 205) | GI50 (RPMI-8226) | GI50 (SF-539) | GI50 (SK-MEL-2) | GI50 (UO-31) | GI50 (SF-295) | GI50 (HOP-92)
O=C(O)c1cc(-c2ccc3c(O)ccc(O)c3c2)ccc1O | 3.01 µM (inactive) | 11.5 µM (inactive) | 21.9 µM (inactive) | 34.1 µM (inactive) | 14.7 µM (inactive) | 18.1 µM (inactive) | 6.4 µM (inactive) | 20.5 µM (inactive) | 12.9 µM (inactive) | 18.2 µM (inactive) | 17.4 µM (inactive) | 17 µM (inactive) | 29.1 µM (inactive) | 19.5 µM (inactive) | 4.78 µM (inactive) | 16 µM (inactive) | 17.2 µM (inactive) | 17.4 µM (inactive) | 18.2 µM (inactive) | –
c1ccc(CCN2CCCCCC2)nc1 | > 100 µM (inactive) | > 100 µM (inactive) | > 100 µM (inactive) | > 100 µM (inactive) | > 100 µM (inactive) | > 100 µM (inactive) | > 100 µM (inactive) | > 100 µM (inactive) | > 100 µM (inactive) | > 100 µM (inactive) | > 100 µM (inactive) | – | > 100 µM (inactive) | > 100 µM (inactive) | > 100 µM (inactive) | – | > 100 µM (inactive) | > 100 µM (inactive) | > 100 µM (inactive) | > 100 µM (inactive)
CC(C)Sc1nncc(/C(N)=N/O)n1 | > 100 µM (inactive) | > 100 µM (inactive) | > 100 µM (inactive) | > 100 µM (inactive) | > 100 µM (inactive) | > 100 µM (inactive) | > 100 µM (inactive) | > 100 µM (inactive) | > 100 µM (inactive) | > 100 µM (inactive) | > 100 µM (inactive) | > 100 µM (inactive) | > 100 µM (inactive) | > 100 µM (inactive) | > 100 µM (inactive) | > 100 µM (inactive) | – | > 100 µM (inactive) | > 100 µM (inactive) | 92 µM (inactive)
CCOC(=O)/C(C(=O)Nc1cccc(Cl)c1)=C(/N)N1CCOCC1 | > 100 µM (inactive) | > 100 µM (inactive) | > 100 µM (inactive) | > 100 µM (inactive) | – | > 100 µM (inactive) | > 100 µM (inactive) | > 100 µM (inactive) | > 100 µM (inactive) | > 100 µM (inactive) | > 100 µM (inactive) | > 100 µM (inactive) | > 100 µM (inactive) | > 100 µM (inactive) | > 100 µM (inactive) | > 100 µM (inactive) | > 100 µM (inactive) | – | > 100 µM (inactive) | –
O=C(N/C(=C\NC1=NCCS1)C(=O)N1CSC[C@@H]1C(=O)O)c1ccccc1 | > 100 µM (inactive) | > 100 µM (inactive) | > 100 µM (inactive) | > 100 µM (inactive) | > 100 µM (inactive) | > 100 µM (inactive) | > 100 µM (inactive) | > 100 µM (inactive) | > 100 µM (inactive) | > 100 µM (inactive) | > 100 µM (inactive) | > 100 µM (inactive) | > 100 µM (inactive) | > 100 µM (inactive) | > 100 µM (inactive) | > 100 µM (inactive) | – | > 100 µM (inactive) | > 100 µM (inactive) | > 100 µM (inactive)
COc1cc(C=O)cc(/C=N/n2c3ccccc3c3ccccc32)c1O | 16.9 µM (inactive) | 14.2 µM (inactive) | 4.6 µM (inactive) | 30.3 µM (inactive) | – | 5.83 µM (inactive) | > 100 µM (inactive) | 30.5 µM (inactive) | 5.41 µM (inactive) | 6.67 µM (inactive) | 20.7 µM (inactive) | 2.79 µM (inactive) | 4.34 µM (inactive) | 18.8 µM (inactive) | 5.01 µM (inactive) | 4.32 µM (inactive) | – | 8.18 µM (inactive) | 3.17 µM (inactive) | 2.91 µM (inactive)
COC(=O)[C@H]1[C@@H](C(C)C)O[C@@H](C(C)C)O[C@H]1C(F)(F)F | > 100 µM (inactive) | > 100 µM (inactive) | > 100 µM (inactive) | > 100 µM (inactive) | > 100 µM (inactive) | > 100 µM (inactive) | > 100 µM (inactive) | > 100 µM (inactive) | > 100 µM (inactive) | > 100 µM (inactive) | > 100 µM (inactive) | > 100 µM (inactive) | > 100 µM (inactive) | > 100 µM (inactive) | > 100 µM (inactive) | > 100 µM (inactive) | – | > 100 µM (inactive) | > 100 µM (inactive) | 44.6 µM (inactive)
CC(=O)Oc1ccc2cc(Oc3ccc(Cl)cc3)c(=O)oc2c1 | – | 37.9 µM (inactive) | 49.9 µM (inactive) | 58.2 µM (inactive) | 20.4 µM (inactive) | 41.5 µM (inactive) | 34.1 µM (inactive) | 40.7 µM (inactive) | 28.2 µM (inactive) | – | 25.2 µM (inactive) | 75.5 µM (inactive) | 53.8 µM (inactive) | – | 34.8 µM (inactive) | 33.3 µM (inactive) | – | 30.6 µM (inactive) | 33.6 µM (inactive) | 38.1 µM (inactive)
CC(=O)OCc1cncn1S(=O)(=O)c1ccc(C)cc1 | 32 µM (inactive) | 30.8 µM (inactive) | 42.2 µM (inactive) | > 100 µM (inactive) | 24.2 µM (inactive) | > 100 µM (inactive) | 79.4 µM (inactive) | 29.9 µM (inactive) | > 100 µM (inactive) | > 91 µM (inactive) | – | > 100 µM (inactive) | > 100 µM (inactive) | 53.1 µM (inactive) | 35 µM (inactive) | 86.9 µM (inactive) | > 100 µM (inactive) | > 100 µM (inactive) | > 100 µM (inactive) | > 100 µM (inactive)
Cc1cc(NS(=O)(=O)c2ccc(NC(=O)c3cccc4c(NNc5ccc(S(=O)(=O)N=C(N)N)cc5)c5ccccc5nc34)cc2)no1 | 28 µM (inactive) | 34.6 µM (inactive) | > 100 µM (inactive) | > 100 µM (inactive) | 44.7 µM (inactive) | 33.9 µM (inactive) | 34.6 µM (inactive) | 51.9 µM (inactive) | 46.1 µM (inactive) | 42.9 µM (inactive) | – | 28.2 µM (inactive) | 39 µM (inactive) | 91.6 µM (inactive) | 82 µM (inactive) | 40.1 µM (inactive) | 19.5 µM (inactive) | 54.2 µM (inactive) | 69.7 µM (inactive) | 17.3 µM (inactive)
CCCCCCCCCCCCCCCCCCOCC(O)COP(=O)(O)OCC1OC(n2ccc(N)nc2=O)C(O)C1O (configuration not stated) | 0.908 µM (active) | 14.1 µM (inactive) | – | 11.6 µM (inactive) | 29.9 µM (inactive) | 57.5 µM (inactive) | 62.5 µM (inactive) | 3.69 µM (inactive) | 6.01 µM (inactive) | 23.9 µM (inactive) | 11 µM (inactive) | 13 µM (inactive) | 16.9 µM (inactive) | 10.9 µM (inactive) | 24.9 µM (inactive) | 16.6 µM (inactive) | – | – | 22.7 µM (inactive) | 19.9 µM (inactive)
CC(=O)Nc1ccc(NC(=O)c2c(Cl)c(Cl)c(Cl)c(Cl)c2-c2nc3ccccc3[nH]2)cc1 | 21.5 µM (inactive) | – | 35.7 µM (inactive) | 53.3 µM (inactive) | 28.6 µM (inactive) | 40.2 µM (inactive) | 25.7 µM (inactive) | 24.7 µM (inactive) | 44.7 µM (inactive) | 27.8 µM (inactive) | 35 µM (inactive) | 73.3 µM (inactive) | 53.5 µM (inactive) | 17.6 µM (inactive) | 23 µM (inactive) | 38.5 µM (inactive) | – | 47.5 µM (inactive) | 38.3 µM (inactive) | 15.7 µM (inactive)
CC(=O)Nc1ccc2c(c1)C(=O)c1cccc(F)c1-2 | 25.3 µM (inactive) | 38.2 µM (inactive) | 50.9 µM (inactive) | 51.3 µM (inactive) | 45.4 µM (inactive) | > 100 µM (inactive) | 24.9 µM (inactive) | 35.4 µM (inactive) | 45.7 µM (inactive) | 38 µM (inactive) | – | 56.2 µM (inactive) | 48.1 µM (inactive) | 53 µM (inactive) | 38.8 µM (inactive) | 0.0234 µM (active) | > 100 µM (inactive) | 21.2 µM (inactive) | 54.2 µM (inactive) | 65.5 µM (inactive)
CC(=O)N1c2ccccc2C2=NN(C)C(=N)SC21 (configuration not stated) | > 100 µM (inactive) | > 100 µM (inactive) | > 100 µM (inactive) | > 100 µM (inactive) | – | > 100 µM (inactive) | 29.9 µM (inactive) | > 100 µM (inactive) | > 100 µM (inactive) | – | 66.7 µM (inactive) | 56 µM (inactive) | > 100 µM (inactive) | > 100 µM (inactive) | > 100 µM (inactive) | > 100 µM (inactive) | > 100 µM (inactive) | 28 µM (inactive) | 50.4 µM (inactive) | –
CCCCCCc1cc2cc(C(=O)Nc3cccc(F)c3)c(=N)oc2cc1O | 1.95 µM (inactive) | 1.67 µM (inactive) | 3.15 µM (inactive) | 4.57 µM (inactive) | 1.4 µM (inactive) | 2.67 µM (inactive) | 2.04 µM (inactive) | 3.19 µM (inactive) | 3.21 µM (inactive) | 1.94 µM (inactive) | 3.02 µM (inactive) | – | 2.32 µM (inactive) | 14.6 µM (inactive) | 1.62 µM (inactive) | 3.26 µM (inactive) | 2.16 µM (inactive) | 2.73 µM (inactive) | 3.2 µM (inactive) | –
